# Source: PMC3711460 (The Journal of neuroscience : the official journal of the …, 2013)
# Columns and labels:
# human TAAR5 = target: T1, human TAAR5 (Homo sapiens, UniProt O14804); format: cell-based
# T1 sequence (O14804 1-337): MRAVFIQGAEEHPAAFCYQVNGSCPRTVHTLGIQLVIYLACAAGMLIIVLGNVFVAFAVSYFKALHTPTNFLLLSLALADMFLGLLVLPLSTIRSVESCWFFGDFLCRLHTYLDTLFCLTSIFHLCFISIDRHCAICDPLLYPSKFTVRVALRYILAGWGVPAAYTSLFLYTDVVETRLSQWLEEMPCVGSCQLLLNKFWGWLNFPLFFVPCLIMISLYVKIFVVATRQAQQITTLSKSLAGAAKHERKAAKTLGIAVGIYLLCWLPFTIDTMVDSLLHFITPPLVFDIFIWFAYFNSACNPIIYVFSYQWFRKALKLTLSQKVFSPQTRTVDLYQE
# TAAR3 = target: T2, TAAR3 (Mus musculus, UniProt Q5QD16); format: cell-based
# T2 sequence (Q5QD16 1-343): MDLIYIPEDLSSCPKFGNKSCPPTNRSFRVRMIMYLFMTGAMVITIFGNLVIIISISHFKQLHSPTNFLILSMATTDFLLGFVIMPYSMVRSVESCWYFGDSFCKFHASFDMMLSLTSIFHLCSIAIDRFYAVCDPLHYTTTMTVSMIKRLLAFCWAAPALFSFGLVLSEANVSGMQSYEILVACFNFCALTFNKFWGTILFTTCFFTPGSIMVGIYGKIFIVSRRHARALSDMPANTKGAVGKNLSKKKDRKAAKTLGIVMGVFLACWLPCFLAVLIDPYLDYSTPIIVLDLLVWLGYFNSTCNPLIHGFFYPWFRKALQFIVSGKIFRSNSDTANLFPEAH
SMILES,EC50 (human TAAR5) [nM],EC50 (TAAR3) [nM]
"CCN(C)C [DMEA, N,N-dimethylethylamine]",1200 ± 600,
"CC(C)CCN [IPA, isopentylamine]",,15
"NC1CCCCC1 [CHX, cyclohexylamine]",,270
